Measured values: ChEMBL document CHEMBL1201862, “PubChem BioAssay data set” (2004)
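Briefly, cells in 96-well plates were exposed to five compound concentrations for 48 h, and endpoints were estimated by linear interpolation. GI50 = concentration required for 50% inhibition of growth.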 The source made the active and inactive calls. Cut-off read from the data, not from the text of the source: active = GI50 up to about 1.1 µM and inactive = higher.

Assays:
Assay in all cases: DTP human tumour cell line panel, 48 h
COLO 205 = system: COLO 205
EKVX = system: EKVX
K562 = system: K562
KM12 = system: KM12
LOX IMVI = system: LOX IMVI
M14 = system: M14
MDA-MB-231 = system: MDA-MB-231
MDA-MB-435 = system: MDA-MB-435
MDA-N = system: MDA-N
Malme-3M = system: Malme-3M
OVCAR-8 = system: OVCAR-8
PC-3 = system: PC-3
SK-MEL-2 = system: SK-MEL-2
SW-620 = system: SW-620
U-251 = system: U-251

SMILES	GI50 (COLO 205)	GI50 (EKVX)	GI50 (K562)	GI50 (KM12)	GI50 (LOX IMVI)	GI50 (M14)	GI50 (MDA-MB-231)	GI50 (MDA-MB-435)	GI50 (MDA-N)	GI50 (Malme-3M)	GI50 (OVCAR-8)	GI50 (PC-3)	GI50 (SK-MEL-2)	GI50 (SW-620)	GI50 (U-251)
CC(=O)NC1=C(OS(=O)(=O)c2ccc(C)cc2)CN(C)C1=O	5.75 µM (inactive)	4.84 µM (inactive)	3.61 µM (inactive)	3.92 µM (inactive)	4.6 µM (inactive)	5.04 µM (inactive)	7.82 µM (inactive)	4.26 µM (inactive)	4.56 µM (inactive)	2.26 µM (inactive)	4.22 µM (inactive)	2.84 µM (inactive)	2.55 µM (inactive)	4.68 µM (inactive)	2.7 µM (inactive)
O=[N+]([O-])/C=C/c1c(Cl)cccc1Cl	0.849 µM (active)	5.65 µM (inactive)	1.68 µM (inactive)	1.58 µM (inactive)	1.37 µM (inactive)	1.48 µM (inactive)	1.91 µM (inactive)	1.77 µM (inactive)	2.89 µM (inactive)	3.05 µM (inactive)	1.4 µM (inactive)	1.77 µM (inactive)	5.94 µM (inactive)	0.966 µM (active)	2.61 µM (inactive)
O=C1c2ccccc2C(=O)N1c1ccc(Cc2ccc(N3C(=O)c4ccccc4C3=O)cc2)cc1	> 100 µM (inactive)	> 100 µM (inactive)	0.853 µM (active)	> 100 µM (inactive)	> 100 µM (inactive)	> 100 µM (inactive)	> 100 µM (inactive)	> 100 µM (inactive)	> 100 µM (inactive)	> 100 µM (inactive)	> 100 µM (inactive)	> 100 µM (inactive)	> 100 µM (inactive)	> 100 µM (inactive)	> 100 µM (inactive)
CCOC(=O)c1cc2c(ccc3cc(C(=O)OCC)[nH]c32)[nH]1	65.3 µM (inactive)	> 100 µM (inactive)	97.1 µM (inactive)	95.1 µM (inactive)	25.6 µM (inactive)	23 µM (inactive)	12.6 µM (inactive)	15.3 µM (inactive)	51.5 µM (inactive)	43.3 µM (inactive)	–	> 100 µM (inactive)	> 100 µM (inactive)	25.8 µM (inactive)	6.15 µM (inactive)
CCc1cc2c(c3c1CCCC3)CC1(Cc3ccc(C(=O)OC)cc3C1)C2 (configuration not stated)	> 100 µM (inactive)	64.4 µM (inactive)	40.3 µM (inactive)	> 100 µM (inactive)	> 100 µM (inactive)	> 100 µM (inactive)	> 100 µM (inactive)	52.6 µM (inactive)	> 100 µM (inactive)	> 100 µM (inactive)	> 100 µM (inactive)	65 µM (inactive)	94.6 µM (inactive)	> 100 µM (inactive)	86.1 µM (inactive)
C=C1c2nc3ccccc3n2C=C(c2ccc(OC)cc2)N1c1ccc(OCCN2CCCCC2)cc1	18.7 µM (inactive)	40.9 µM (inactive)	4.83 µM (inactive)	8 µM (inactive)	7.41 µM (inactive)	14.2 µM (inactive)	19.8 µM (inactive)	8.69 µM (inactive)	19.7 µM (inactive)	> 48.4 µM (inactive)	7.76 µM (inactive)	15.2 µM (inactive)	22.1 µM (inactive)	6.27 µM (inactive)	7.59 µM (inactive)
Cc1ccc2nc(SCC(=O)N/N=C3\C(=O)Nc4ccccc43)n(-c3ccccc3)c(=O)c2c1	13.4 µM (inactive)	15.6 µM (inactive)	23.7 µM (inactive)	13.6 µM (inactive)	15.6 µM (inactive)	16.3 µM (inactive)	10.9 µM (inactive)	16.5 µM (inactive)	19 µM (inactive)	20.2 µM (inactive)	–	17.1 µM (inactive)	1.69 µM (inactive)	23.6 µM (inactive)	12.3 µM (inactive)
NC(=O)N/N=C1/CCC(O)CC1CC(=O)O (configuration not stated)	> 100 µM (inactive)	> 100 µM (inactive)	> 100 µM (inactive)	> 100 µM (inactive)	> 100 µM (inactive)	> 100 µM (inactive)	> 100 µM (inactive)	> 100 µM (inactive)	> 100 µM (inactive)	> 100 µM (inactive)	> 100 µM (inactive)	> 100 µM (inactive)	> 100 µM (inactive)	> 100 µM (inactive)	> 100 µM (inactive)
CC(C)NC(=O)OCc1c(COC(=O)NC(C)C)n(C)c2c1ccc1sccc12	13.6 µM (inactive)	11.2 µM (inactive)	23.4 µM (inactive)	15 µM (inactive)	7.94 µM (inactive)	14.1 µM (inactive)	20.1 µM (inactive)	13.2 µM (inactive)	17.4 µM (inactive)	3.15 µM (inactive)	> 100 µM (inactive)	11.5 µM (inactive)	16.4 µM (inactive)	16.2 µM (inactive)	20.7 µM (inactive)
CCOC(=O)c1cc2c([nH]1)c(O)cc1c2ccn1Cc1ccccc1	21.4 µM (inactive)	12.8 µM (inactive)	8.34 µM (inactive)	10.3 µM (inactive)	14.4 µM (inactive)	23.6 µM (inactive)	23.5 µM (inactive)	16.9 µM (inactive)	15.3 µM (inactive)	18.5 µM (inactive)	17.2 µM (inactive)	16.1 µM (inactive)	20.4 µM (inactive)	18 µM (inactive)	16.7 µM (inactive)
O=c1[nH]c2ccsc2c(=O)n1COCc1ccccc1	> 100 µM (inactive)	> 100 µM (inactive)	> 100 µM (inactive)	> 100 µM (inactive)	> 100 µM (inactive)	> 100 µM (inactive)	> 100 µM (inactive)	> 100 µM (inactive)	> 100 µM (inactive)	> 100 µM (inactive)	> 100 µM (inactive)	> 100 µM (inactive)	> 100 µM (inactive)	> 100 µM (inactive)	> 100 µM (inactive)
N#Cc1ccccc1NC(=O)C(=O)c1c(O)c2ccccc2oc1=O	–	> 100 µM (inactive)	> 100 µM (inactive)	> 100 µM (inactive)	> 100 µM (inactive)	> 100 µM (inactive)	> 100 µM (inactive)	> 100 µM (inactive)	> 100 µM (inactive)	> 100 µM (inactive)	> 100 µM (inactive)	> 100 µM (inactive)	> 100 µM (inactive)	> 100 µM (inactive)	> 100 µM (inactive)
CN(C)CCNC(=O)c1cccc2c(NCC(=O)O)c3ccccc3nc12	5.21 µM (inactive)	10.6 µM (inactive)	14 µM (inactive)	11.9 µM (inactive)	4.97 µM (inactive)	17 µM (inactive)	14.7 µM (inactive)	11.4 µM (inactive)	14 µM (inactive)	11 µM (inactive)	4.61 µM (inactive)	10.5 µM (inactive)	16.7 µM (inactive)	6.62 µM (inactive)	24.5 µM (inactive)
CCC1(C(=O)OC(C)(C)C)OC12C(C)CCCC2C (configuration not stated)	23.9 µM (inactive)	63.7 µM (inactive)	21.8 µM (inactive)	37.3 µM (inactive)	32.1 µM (inactive)	41.2 µM (inactive)	> 100 µM (inactive)	41.2 µM (inactive)	56.8 µM (inactive)	56.2 µM (inactive)	78.7 µM (inactive)	57.9 µM (inactive)	44.8 µM (inactive)	29.5 µM (inactive)	42.9 µM (inactive)
C/C(=C\COc1ccc2ccc(=O)oc2c1)CCC(=O)C(C)(C)O	20.7 µM (inactive)	34 µM (inactive)	16.2 µM (inactive)	18.5 µM (inactive)	13.8 µM (inactive)	22 µM (inactive)	44 µM (inactive)	21.4 µM (inactive)	25.6 µM (inactive)	44.9 µM (inactive)	23.3 µM (inactive)	53.5 µM (inactive)	39.1 µM (inactive)	19.5 µM (inactive)	19.8 µM (inactive)
COc1ccc(CC2COc3cc(OC)cc(OC)c3C2=O)cc1 (configuration not stated)	14.8 µM (inactive)	29.5 µM (inactive)	31 µM (inactive)	8.81 µM (inactive)	34.5 µM (inactive)	16.4 µM (inactive)	33.3 µM (inactive)	3.18 µM (inactive)	3.76 µM (inactive)	15.3 µM (inactive)	26.1 µM (inactive)	22.5 µM (inactive)	36.5 µM (inactive)	29.8 µM (inactive)	37 µM (inactive)
CN(/N=C/c1ccc(OCc2cccc(COc3ccc(C=O)cc3)n2)cc1)c1cnn(-c2ccc(Cl)cc2Cl)c(=O)c1Cl	> 100 µM (inactive)	16 µM (inactive)	> 100 µM (inactive)	> 100 µM (inactive)	88.1 µM (inactive)	> 100 µM (inactive)	20.7 µM (inactive)	> 100 µM (inactive)	> 100 µM (inactive)	84.1 µM (inactive)	> 100 µM (inactive)	> 100 µM (inactive)	33 µM (inactive)	> 100 µM (inactive)	26.9 µM (inactive)
COc1cc([N+](=O)[O-])c(S(=O)(=O)O)cc1-n1nc(-c2ccccc2)n[n+]1-c1cc(S(=O)(=O)[O-])c([N+](=O)[O-])cc1OC	> 100 µM (inactive)	> 100 µM (inactive)	> 100 µM (inactive)	> 100 µM (inactive)	> 100 µM (inactive)	> 100 µM (inactive)	> 100 µM (inactive)	> 100 µM (inactive)	> 100 µM (inactive)	> 100 µM (inactive)	> 100 µM (inactive)	> 100 µM (inactive)	> 100 µM (inactive)	> 100 µM (inactive)	> 100 µM (inactive)
